Laboratory results published in US8735414B2 (priority 2009, dated 2014).

Key:
[1] = tested on: bicistronic HCV replicon (replicon RNA, GenBank Accession No. AJ242654); experiment: HCV Replicon Assay; type: cell-based; conditions: Hepatitis C virus, 72 h, read-out: Replicon IC50

| SMILES | IC50 [1] | melting point |
| --- | --- | --- |
| Cc1ccc(-n2c(-c3ccc(S(=O)(=O)N[C@@H](C)C(F)(F)F)cn3)c(C#N)c3cc(F)c(C)cc32)nc1 [compound 885, 6-[3-cyano-5-fluoro-6-methyl-1-(5-methylpyridin-2-yl)-1H-indol-2-yl]-N-[(2S)-1,1,1-trifluoropropan-2-yl]pyridine-3-sulfonamide] | < 500 nM | 250 to 254 °C |
| CC(C)NS(=O)(=O)c1ccc(-c2c(C#N)c3ccc(OC4CCC4)cc3n2C2CCC2)cn1 [compound 4, 5-[3-cyano-1-cyclobutyl-6-(cyclobutyloxy)-1H-indol-2-yl]-N-(propan-2-yl)pyridine-2-sulfonamide] | 2000 to 5000 nM | 178 to 180 °C |
| CCCn1c(-c2ccc(S(=O)(=O)N[C@@H](C)C(F)(F)F)cn2)c(C#N)c2cc(F)c(OC(F)F)cc21 [compound 786, 6-[3-cyano-6-(difluoromethoxy)-5-fluoro-1-propyl-1H-indol-2-yl]-N-[(2S)-1,1,1-trifluoropropan-2-yl]pyridine-3-sulfonamide] | < 500 nM | 162 to 168 °C |
| N#Cc1c(-c2ccc(S(=O)(=O)NC(CF)CF)cn2)n(C2CCC2)c2cc(F)ccc12 [compound 56, 6-(3-cyano-1-cyclobutyl-6-fluoro-1H-indol-2-yl)-N-(1,3-difluoropropan-2-yl)pyridine-3-sulfonamide] | < 500 nM | 206 to 208 °C |
| Cc1ccc2c(C#N)c(-c3ccc(S(=O)(=O)NC(C)(C)C(F)(F)F)cn3)n(C3CCCC3)c2c1 [compound 371, 6-(3-cyano-1-cyclopentyl-6-methyl-1H-indol-2-yl)-N-(1,1,1-trifluoro-2-methylpropan-2-yl)pyridine-3-sulfonamide] | < 500 nM | 202 to 211 °C |
| COc1ccc2c(C#N)c(-c3ncc(S(=O)(=O)N[C@@H](C)C(F)(F)F)cn3)n(C3CCC3)c2c1 [compound 405, 2-(3-cyano-1-cyclobutyl-6-methoxy-1H-indol-2-yl)-N-[(2S)-1,1,1-trifluoropropan-2-yl]pyrimidine-5-sulfonamide] | < 500 nM | 254 to 255 °C |
| Cc1ccc2c(C#N)c(-c3ccc(S(=O)(=O)N[C@@H](C)C(F)(F)F)cn3)n(C3CCCCC3)c2c1 [compound 354, 6-(3-cyano-1-cyclohexyl-6-methyl-1H-indol-2-yl)-N-[(2S)-1,1,1-trifluoropropan-2-yl]pyridine-3-sulfonamide] | < 500 nM | 207 to 212 °C |
| N#Cc1c(-c2ncc(S(=O)(=O)NC(CF)CF)cn2)n(C2CCCC2)c2cc(CC(F)F)ccc12 [compound 599, 2-[3-cyano-1-cyclopentyl-6-(2,2-difluoroethyl)-1H-indol-2-yl]-N-(1,3-difluoropropan-2-yl)pyrimidine-5-sulfonamide] | < 500 nM | 174 to 210 °C |
| N#Cc1c(-c2ncc(S(=O)(=O)NC(CF)CF)cn2)n(-c2ccccn2)c2cc(Cl)ccc12 [compound 450, 2-[6-chloro-3-cyano-1-(pyridin-2-yl)-1H-indol-2-yl]-N-(1,3-difluoropropan-2-yl)pyrimidine-5-sulfonamide] | < 500 nM | 234 to 235 °C |
| C[C@H](NS(=O)(=O)c1ccc(-c2c(Cl)c3cc(F)c(C4CC4)cc3n2-c2ncccn2)nc1)C(F)(F)F [compound 947, 6-[3-chloro-6-cyclopropyl-5-fluoro-1-(pyrimidin-2-yl)-1H-indol-2-yl]-N-[(2S)-1,1,1-trifluoropropan-2-yl]pyridine-3-sulfonamide] | < 500 nM | 248 to 250 °C |
| CCc1ccc2c(C#N)c(-c3ccc(S(=O)(=O)N[C@@H](C)C(F)(F)F)cn3)n(C3CCC3)c2c1 [compound 338, 6-(3-cyano-1-cyclobutyl-6-ethyl-1H-indol-2-yl)-N-[(2S)-1,1,1-trifluoropropan-2-yl]pyridine-3-sulfonamide] | < 500 nM | 198 to 199 °C |
| CCCn1c(-c2ccc(S(=O)(=O)NC(CF)CF)cn2)c(C#N)c2ccc(OC(F)F)cc21 [compound 45, 6-[3-cyano-6-(difluoromethoxy)-1-propyl-1H-indol-2-yl]-N-(1,3-difluoropropan-2-yl)pyridine-3-sulfonamide] | < 500 nM | 156 to 158 °C |
| CC(C)n1c(-c2ccc(S(=O)(=O)NC(CF)CF)cn2)c(C#N)c2ccc(F)cc21 [compound 61, 6-[3-cyano-6-fluoro-1-(propan-2-yl)-1H-indol-2-yl]-N-(1,3-difluoropropan-2-yl)pyridine-3-sulfonamide] | < 500 nM | 155 to 156 °C |
| CCCS(=O)(=O)Nc1ccc(-c2c(C#N)c3ccc(Oc4nccnc4C#N)cc3n2C2CCC2)nc1 [compound 273, N-(6-{3-cyano-6-[(3-cyanopyrazin-2-yl)oxy]-1-cyclobutyl-1H-indol-2-yl}pyridin-3-yl)propane-1-sulfonamide] | < 500 nM | 252 to 254 °C |
| CCc1cc2c(cc1F)c(C(N)=O)c(-c1ccc(NS(=O)(=O)C(C)(C)C)cn1)n2C1CCCCC1 [compound 999, 2-{5-[(tert-butylsulfonyl)amino]pyridin-2-yl}-1-cyclohexyl-6-ethyl-5-fluoro-1H-indole-3-carboxamide] | < 500 nM | 264 to 265 °C |
| Cc1ccc2c(C#N)c(-c3ccc(S(=O)(=O)N[C@@H](C)C4CC4)cn3)n(C3CCC3)c2c1 [compound 238, 6-(3-cyano-1-cyclobutyl-6-methyl-1H-indol-2-yl)-N-[(1S)-1-cyclopropylethyl]pyridine-3-sulfonamide] | < 500 nM | 181 to 187 °C |
| Cc1ccc2c(C#N)c(-c3ncc(S(=O)(=O)N[C@@H](C)C4CC4)cn3)n(CC3CC3)c2c1 [compound 203, 2-[3-cyano-1-(cyclopropylmethyl)-6-methyl-1H-indol-2-yl]-N-[(1S)-1-cyclopropylethyl]pyrimidine-5-sulfonamide] | < 500 nM | 205 to 207 °C |
| C[C@H](NS(=O)(=O)c1cnc(-c2c(C#N)c3ccc(F)cc3n2C2CCC2)nc1)C(F)(F)F [compound 494, 2-(3-cyano-1-cyclobutyl-6-fluoro-1H-indol-2-yl)-N-[(2S)-1,1,1-trifluoropropan-2-yl]pyrimidine-5-sulfonamide] | 2000 to 5000 nM | 223 to 225 °C |
| CCc1cc2c(cc1F)c(C#N)c(-c1ccc(S(=O)(=O)N[C@H](C)C(F)(F)F)cn1)n2-c1ccc(F)cn1 [compound 880, 6-[3-cyano-6-ethyl-5-fluoro-1-(5-fluoropyridin-2-yl)-1H-indol-2-yl]-N-[(2R)-1,1,1-trifluoropropan-2-yl]pyridine-3-sulfonamide] | < 500 nM | 209 to 216 °C |
| Cc1ccc2c(c1)c(C#N)c(-c1ccc(S(=O)(=O)NC3(C(F)(F)F)CC3)cn1)n2C1CCC1 [compound 328, 6-(3-cyano-1-cyclobutyl-5-methyl-1H-indol-2-yl)-N-[1-(trifluoromethyl)cyclopropyl]pyridine-3-sulfonamide] | < 500 nM | 193 to 199 °C |
| CCS(=O)(=O)Nc1ccc(-c2c(C#N)c3ccc(C4CC4)cc3n2C2CCC2)cn1 [compound 288, N-[5-(3-cyano-1-cyclobutyl-6-cyclopropyl-1H-indol-2-yl)pyridin-2-yl]ethanesulfonamide] | 500 to 2000 nM | 241 to 243 °C |
| Cc1cc2c(cc1F)c(C#N)c(-c1ccc(S(=O)(=O)NC(C)(C)C(F)(F)F)cn1)n2C1CCC1 [compound 539, 6-(3-cyano-1-cyclobutyl-5-fluoro-6-methyl-1H-indol-2-yl)-N-(1,1,1-trifluoro-2-methylpropan-2-yl)pyridine-3-sulfonamide] | < 500 nM | 238 to 243 °C |
| COc1cc2c(C#N)c(-c3ccc(S(=O)(=O)N[C@@H](C)C(F)(F)F)cn3)n(C3CCCC3)c2cc1C [compound 669, 6-(3-cyano-1-cyclopentyl-5-methoxy-6-methyl-1H-indol-2-yl)-N-[(2S)-1,1,1-trifluoropropan-2-yl]pyridine-3-sulfonamide] | < 500 nM | 211 to 211.5 °C |
| C[C@H](NS(=O)(=O)c1ccc(-c2c(C(N)=O)c3cc(F)c(OC(F)F)cc3n2C2CCCC2)nc1)C(F)(F)F [compound 806, 1-cyclopentyl-6-(difluoromethoxy)-5-fluoro-2-(5-{[(2S)-1,1,1-trifluoropropan-2-yl]sulfamoyl}pyridin-2-yl)-1H-indole-3-carboxamide] | < 500 nM | 220 to 222 °C |
| CC(C)NS(=O)(=O)c1ccc(-c2c(C#N)c3cccc(F)c3n2C2CCCC2)nc1 [compound 66, 6-(3-cyano-1-cyclopentyl-7-fluoro-1H-indol-2-yl)-N-(propan-2-yl)pyridine-3-sulfonamide] | < 500 nM | 152 to 153 °C |
| Cc1cc2c(cc1F)c(C#N)c(-c1ccc(S(=O)(=O)NC(CF)CF)cn1)n2-c1ccccn1 [compound 540, 6-[3-cyano-5-fluoro-6-methyl-1-(pyridin-2-yl)-1H-indol-2-yl]-N-(1,3-difluoropropan-2-yl)pyridine-3-sulfonamide] | < 500 nM | 233 to 236 °C |
| Cc1ccc2c(C#N)c(-c3ccc(S(=O)(=O)NC(CF)CF)cn3)n(-c3ccccn3)c2c1 [compound 248, 6-[3-cyano-6-methyl-1-(pyridin-2-yl)-1H-indol-2-yl]-N-(1,3-difluoropropan-2-yl)pyridine-3-sulfonamide] | < 500 nM | 159 to 162 °C |
| C[C@H](NS(=O)(=O)c1cnc(-c2c(C#N)c3ccc(OC(F)F)cc3n2-c2ccccc2)nc1)C(F)(F)F [compound 611, 2-[3-cyano-6-(difluoromethoxy)-1-phenyl-1H-indol-2-yl]-N-[(2S)-1,1,1-trifluoropropan-2-yl]pyrimidine-5-sulfonamide] | < 500 nM | 216 to 218 °C |
| Cc1ccc2c(C#N)c(-c3ccc(S(=O)(=O)NC(C)(C)C(F)(F)F)cn3)n(-c3ncccn3)c2c1 [compound 689, 6-[3-cyano-6-methyl-1-(pyrimidin-2-yl)-1H-indol-2-yl]-N-(1,1,1-trifluoro-2-methylpropan-2-yl)pyridine-3-sulfonamide] | 500 to 2000 nM | 202 to 205 °C |
